Test results published in ChEMBL document CHEMBL1201862, “PubChem BioAssay data set” (2004).
Calls of active or inactive are those of the source. Cut-off read from the data, not from the text of the source, for most assays here: actives have a measured EC50 and inactives only a lower limit.

Experiments:
[1] = inhibitors of intracellular T. cruzi replication, confirmation, NIH3T3 host cells, beta-gal luminescence (AID 2044); type: functional, cell-based;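 note: intracellular parasites grown in NIH/3T3 mouse fibroblasts as host cells; luminescent beta-galactosidase reporter signal from transgenic T. cruzi replicating inside host cells; inhibitors lower the luminescence signal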
[2] = cytotoxicity toward NIH3T3 fibroblasts, dose response, counter-screen, cell-based, ATP luminescence, mouse fibroblasts (AID 2010); type: functional;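 note: cells exposed to compound for about 90 hours before reading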
Cytochrome P450 1A2 = biological target: T1, Cytochrome P450 1A2 (Homo sapiens, UniProt P05177);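 note: PubChem cytochrome P450 panel assay, CYP1A2 panel member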
T1 sequence (P05177 whole entry): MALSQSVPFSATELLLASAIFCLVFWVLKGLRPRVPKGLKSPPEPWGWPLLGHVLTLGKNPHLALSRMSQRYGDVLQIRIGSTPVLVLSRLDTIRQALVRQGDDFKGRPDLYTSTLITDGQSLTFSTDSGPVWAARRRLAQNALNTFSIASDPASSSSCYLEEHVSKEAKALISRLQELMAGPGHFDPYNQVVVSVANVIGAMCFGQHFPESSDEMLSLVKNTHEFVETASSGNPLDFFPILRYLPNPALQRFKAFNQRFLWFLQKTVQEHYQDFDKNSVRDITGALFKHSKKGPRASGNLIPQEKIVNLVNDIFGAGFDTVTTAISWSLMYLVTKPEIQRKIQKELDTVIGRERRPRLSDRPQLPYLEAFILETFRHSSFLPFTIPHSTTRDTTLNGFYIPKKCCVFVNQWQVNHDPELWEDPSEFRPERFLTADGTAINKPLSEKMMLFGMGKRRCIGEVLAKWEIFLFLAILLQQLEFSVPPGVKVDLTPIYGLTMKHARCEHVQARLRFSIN

[3] = system: Streptococcus sp. 'group A'; experiment: growth inhibition of control SK(-) GAS strain, dose response, counter-screen for streptokinase expression inhibitor project, luminescence, kanamycin, BacTiterGlo, confirmation (AID 1900); type: functional, organism-based
Streptokinase A = biological target: T2, Streptokinase A (Streptococcus pyogenes serotype M1, UniProt P10520); experiment: S. pyogenes streptokinase expression inhibitors, potency, dose response, plasminogen activation absorbance, OD405 (AID 1914); type: functional, Streptococcus pyogenes M1 GAS;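 note: secreted streptokinase activity via plasminogen activation per viability signal from cell pellet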
T2 sequence (P10520 whole entry): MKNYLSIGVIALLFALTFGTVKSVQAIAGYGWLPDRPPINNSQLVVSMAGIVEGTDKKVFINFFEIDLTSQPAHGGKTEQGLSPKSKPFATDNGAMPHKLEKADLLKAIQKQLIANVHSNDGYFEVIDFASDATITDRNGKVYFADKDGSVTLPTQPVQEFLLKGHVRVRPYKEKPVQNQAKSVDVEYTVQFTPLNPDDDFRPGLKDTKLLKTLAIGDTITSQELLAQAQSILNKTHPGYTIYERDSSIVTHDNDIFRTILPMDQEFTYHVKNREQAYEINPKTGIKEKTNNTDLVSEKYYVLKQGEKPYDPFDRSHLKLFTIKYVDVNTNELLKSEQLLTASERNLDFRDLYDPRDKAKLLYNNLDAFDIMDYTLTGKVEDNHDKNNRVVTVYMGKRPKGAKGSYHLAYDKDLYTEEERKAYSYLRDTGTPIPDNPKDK

Streptococcus = experiment: Group A Streptococcus viability loss, dose response, counter-screen for streptokinase expression inhibitor project, luminescence, BacTiterGlo (AID 1915); type: functional, organism-based;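 note: potency for reduction of bacterial viability or growth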
[4] = HEp-2 cell cytotoxicity, dose response, cytotoxicity control for RSV inhibitor project, HTS (AID 2410); type: functional; conditions: human respiratory syncytial virus
INS1 = experiment: beta cell apoptosis inhibitors, cytokine rescue, dose response, luminescence, retest (AID 449756); type: functional, cell-based; conditions: Rattus norvegicus;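 note: cell death triggered by IL-1 beta plus TNF-alpha plus IFN-gamma mixture; protective hits raise ATP signal compared with cytokine alone wells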

CCOc1ccccc1OCCOCCN1CCN(Cc2ccccc2)CC1
EC50 [1]: 0.633 µM (active) | EC50 [2]: > 60 µM (not active)

COc1ccc(C(=O)CC(Nc2ccc([N+](=O)[O-])cc2)c2ccc(Cl)cc2)cc1 (stereo unspecified)
EC50 [1]: 2.27 µM (active) | EC50 [2]: > 60 µM (not active)

Cc1ccc(C2NC(c3ccc(C)cc3)C(C)C(=NO)C2C)cc1 (stereo unspecified)
AC50 (Cytochrome P450 1A2): 15.8 µM (inconclusive)

CCOC(=O)c1[nH]c(C)c(C(=O)OCC(=O)N2c3ccccc3CC2C)c1C (stereo unspecified)
AC50 (Cytochrome P450 1A2): 12.6 µM (inconclusive)

O=C(C1=C(O)C(=O)N(Cc2ccco2)C1c1cccc(Cl)c1)c1ccco1 (stereo unspecified)
EC50 [3]: 22.7 µM (active) | EC50 (Streptokinase A): > 150 µM (not active) | EC50 (Streptococcus): > 150 µM (not active)

CCCNC(=O)CCc1c(C)nc2c(c(C)nn2-c2ccc(C)cc2)c1C
EC50 [1]: 1.8 µM (active) | EC50 [2]: > 60 µM (not active)

COc1ccccc1NC(=O)Nc1nc(CC(=O)N2CCN(c3ccccc3OC)CC2)cs1
CC50 [4]: 15.2 µM (active)

CC(=O)Nc1ccc(S(=O)(=O)N2c3ccccc3NC(=O)CC2C)c(Cl)c1 (stereo unspecified)
AC50 (INS1): > 260 µM (inactive)

CC1CCN(C(=O)CCNS(=O)(=O)c2ccc(Br)cc2)CC1
AC50 (INS1): > 260 µM (inactive)

Cc1csc2ncnc(N3CCN(S(=O)(=O)c4cccc(C(F)(F)F)c4)CC3)c12
AC50 (INS1): 3.86 µM (active)

Clc1cccc(-c2cc3nc4c(c(N5CCN(c6cnccn6)CC5)n3n2)CCCC4)c1
CC50 [4]: 35.2 µM (active)

CC(C)c1nc(-c2ccccc2)c(-c2ccccc2)[nH]1
AC50 (INS1): 7.08 µM (active)

O=C(CCN1CCN(C/C=C/c2ccccc2)CC1)Nc1cccc(F)c1
EC50 [1]: 0.383 µM (active) | EC50 [2]: 21.9 µM (active)

COc1ccc2c(c1)c(CC(=O)NCc1cc([N+](=O)[O-])ccc1O)c(C)n2C(=O)c1ccc(Cl)cc1
EC50 [3]: 19.1 µM (active) | EC50 (Streptokinase A): 20.2 µM (active) | EC50 (Streptococcus): > 150 µM (not active)

CCOc1ccccc1CN1CCCC(CNC(=O)Cc2ccc(OC)cc2)C1 (stereo unspecified)
EC50 [1]: 1.33 µM (active) | EC50 [2]: > 60 µM (not active)

CCCCc1nc2cc(C(=O)N3CCC(OCCOC)CC3)ccc2o1
EC50 [3]: > 150 µM (not active) | EC50 (Streptokinase A): > 150 µM (not active) | EC50 (Streptococcus): > 150 µM (not active)

CCCCN(CC)CCNC(=O)c1cn(-c2ccc(Cl)cc2)c(=O)c2ccccc12
EC50 [1]: 0.896 µM (active) | EC50 [2]: > 60 µM (inconclusive)

Nc1nc(Nc2ccccc2)nc2c1ncn2[C@@H]1O[C@@H](CO)[C@H](O)[C@H]1O
AC50 (Cytochrome P450 1A2): 39.8 µM (inconclusive)

CCCCCn1c(=O)c(C(=O)Nc2ncccc2C)c(O)c2ccccc21
AC50 (INS1): 10.4 µM (active)

COc1ccc(N2CCN(C(CNS(=O)(=O)c3cc(F)ccc3F)c3cccnc3)CC2)cc1 (stereo unspecified)
EC50 [1]: 0.206 µM (active) | EC50 [2]: > 60 µM (not active)

CCOC(=O)c1ccc(Oc2c[nH]nc2-c2ccc(OCC(=O)NN)cc2O)cc1
EC50 [3]: > 150 µM (not active) | EC50 (Streptokinase A): > 150 µM (not active) | EC50 (Streptococcus): > 150 µM (not active)

COc1cccc(C(=O)Nc2cccc(-c3nnc(-c4ccccc4)o3)c2)c1
EC50 [3]: 23.2 µM (active) | EC50 (Streptokinase A): > 150 µM (not active) | EC50 (Streptococcus): 57.9 µM (active)

CCOC(=O)c1cnc2ccc(OCC)cc2c1N1CCN(c2ccccc2)CC1
AC50 (INS1): 14.9 µM (active)

N#CCCn1c(=O)c(-c2ccc(Cl)cc2)nc2cnc(Oc3ccccc3)nc21
AC50 (Cytochrome P450 1A2): 0.501 µM (inconclusive)

Cc1cc(C)nc(SCC(=O)NC2=NN=C(c3ccc(Br)cc3)CS2)n1
EC50 [1]: 1.65 µM (active) | EC50 [3]: 2.6 µM (active) | EC50 (Streptokinase A): > 150 µM (not active) | EC50 (Streptococcus): 3.62 µM (active) | EC50 [2]: > 60 µM (inconclusive) | AC50 (INS1): 4.78 µM (active)

COC(=O)[C@@]1(Cc2ccc(OC)cc2)[C@H]2c3cc(C(=O)N(C)C)[nH]c3C[C@H]2CN1C(=O)c1ccccc1
AC50 (Cytochrome P450 1A2): 20 µM (inconclusive)

COCCNC(=O)COc1ccc(Oc2ccccc2)cc1
AC50 (Cytochrome P450 1A2): 25.1 µM (inconclusive)

COc1ccc(CCn2c(-c3cc([N+](=O)[O-])cc([N+](=O)[O-])c3)nc3nc4ccccc4nc32)cc1OC
EC50 [1]: 0.105 µM (active) | EC50 [2]: > 60 µM (not active)

CCOCC(=O)Nc1ccc([N+](=O)[O-])cc1OC
CC50 [4]: > 50 µM (active)

Cc1onc(-c2c(F)cccc2Cl)c1C(=O)NCc1ccc2c(c1)OCO2
EC50 [3]: > 150 µM (not active) | EC50 (Streptokinase A): > 150 µM (not active) | EC50 (Streptococcus): > 150 µM (not active)

O=C1CCC(/C=C/c2ccccc2)=NN1Cc1ccccc1Cl
CC50 [4]: 27 µM (active)

Cc1cccc2c1-c1sc(C(=O)N3CCc4ccccc4C3)cc1CO2
CC50 [4]: 11.6 µM (active)

CCCc1cc(COC)c(C#N)c(O)n1
AC50 (Cytochrome P450 1A2): 6.31 µM (inconclusive)

CCCCOc1ccc(/C=C/C2=CC(C)(C)NC(S)=N2)cc1OCC
EC50 [1]: 0.774 µM (active) | EC50 [2]: > 60 µM (inconclusive)

COc1cccc(C(=O)OC2CCN(C)CC2)c1
EC50 [1]: 0.233 µM (active) | EC50 [2]: > 30 µM (not active)

N#Cc1cccc(-c2nc3cnc(N4CCOCC4)nc3n(C[C@H]3CCCO3)c2=O)c1
AC50 (Cytochrome P450 1A2): 0.794 µM (inconclusive)

CCCN=C(S)N1CCN(c2nc(C)nc3sc4c(c23)CCCC4)CC1
CC50 [4]: 11.2 µM (active)

O=C(Nc1ccccc1N1CCCCC1)c1cc(S(=O)(=O)N2CCOCC2)ccc1Cl
CC50 [4]: 21.7 µM (active)

COc1cccc(C(=O)Nc2nc(-c3ccccc3)c(-c3ccccc3)o2)c1
EC50 [3]: 1.44 µM (active) | EC50 (Streptococcus): 5.62 µM (active)

COc1cccc(N/C(C)=C/C(=O)c2ccc(Br)cc2)c1
CC50 [4]: 25.5 µM (active)

CCOC(=O)C1CCN(C(=O)C(=O)c2cn(CC(=O)N3CCCCCC3)c3ccccc23)CC1
EC50 [1]: 0.763 µM (active) | EC50 [2]: > 60 µM (not active)

CN(Cc1ccco1)c1ncncc1-c1cccc(C#N)c1
AC50 (Cytochrome P450 1A2): 12.6 µM (inconclusive)

CCn1c(=O)c(C(=O)NNC(=O)c2ccc(Cl)cc2Cl)c(O)c2ccccc21
EC50 [3]: 3.62 µM (active) | EC50 (Streptococcus): 7.58 µM (active)

COC(=O)C1=C(c2ccccc2OCc2ccccc2)C[C@@H]2CC[C@H]1N2C(=O)NCc1ccc([N+](=O)[O-])cc1
CC50 [4]: 37.6 µM (active)

COc1cc(/C(C)=C/c2ccccc2)c2c(c1)oc1ccccc12
EC50 [3]: 2.3 µM (active) | EC50 (Streptokinase A): 20.9 µM (active) | EC50 (Streptococcus): > 150 µM (not active)

CC(C)(C)c1ccc(OCC(=O)N2CCN(c3ncccn3)CC2)cc1
EC50 [3]: > 150 µM (not active) | EC50 (Streptokinase A): > 150 µM (not active) | EC50 (Streptococcus): > 150 µM (not active)

COc1ccc(C(=O)NC(=S)NNC(=O)COc2ccccc2)cc1
EC50 [3]: 2.23 µM (active) | EC50 (Streptococcus): 3.64 µM (active)

Fc1cccc(Cc2noc(CN3CCCN(C4Cc5ccccc5C4)CC3)n2)c1
EC50 [1]: 0.57 µM (active) | EC50 [2]: 45.2 µM (active)

CCCC[C@@H]1C[C@H]1C(NC(=O)c1ccc(C(F)(F)F)cc1)c1ccc(C(=O)OC)cc1 (stereo partly specified)
AC50 (Cytochrome P450 1A2): 15.8 µM (inconclusive)

COCCn1c(=O)c(-c2cn(C)c3ccccc23)nc2cnc(Oc3ccccc3)nc21
AC50 (Cytochrome P450 1A2): 10 µM (inconclusive)

Cc1ccc(-c2cccc(C(=O)NCCc3ccccc3)n2)c2ccccc12
CC50 [4]: 16.2 µM (active)

N=C(N)C(/N=N\c1ccccc1)C(=N)N (stereo unspecified)
AC50 (Cytochrome P450 1A2): 5.01 µM (inconclusive)

O=C1N=C(N/N=C/c2ccccc2O)SC1Cc1ccc(F)cc1 (stereo unspecified)
EC50 [3]: 16 µM (active) | EC50 (Streptokinase A): > 150 µM (not active) | EC50 (Streptococcus): > 150 µM (not active) | AC50 (INS1): 4.67 µM (active)

COc1ccc(/N=C2/SCC(c3ccc([N+](=O)[O-])cc3)=NN2CCO)cc1
CC50 [4]: 15.8 µM (active)

NC(=O)N/N=C(/CCCCCC/C(=N\NC(N)=O)c1ccccc1)c1ccccc1
EC50 [3]: 26.6 µM (active) | EC50 (Streptokinase A): > 150 µM (not active) | EC50 (Streptococcus): > 150 µM (not active)

C=CCNC(=S)N/N=C/c1ccc(OCc2ccccc2Cl)cc1
EC50 [1]: 1.65 µM (active) | EC50 [2]: > 30 µM (not active)

Cc1ccc(-n2c(-c3ccccc3)cc(/C=N/NC(=O)CC#N)c2-c2ccccc2)cc1
EC50 [1]: 1.72 µM (active) | EC50 [2]: > 60 µM (not active)

O=C1N(c2ccccc2)c2ccccc2C1(Cc1ccncc1)Cc1ccncc1 [LINOPIRDINE]
AC50 (Cytochrome P450 1A2): 31.6 µM (inconclusive)
